Measured values taken from patent US20090155186A1, “Compositions and methods for treating inflammatory conditions” (SIGNUM BIOSCENCES, INC., priority 2005, published 2009).

Tests used:
TPA-induced MPO activity [1] = settings: mouse, in vivo
Description: These included dexamethasone, a steroid, and indomethasone, a non-steroid anti-inflammatory drug, which targets cycloxygenases. The action of AFC in this model was, therefore, compared to that of dexamethasone and indomethasone. Each of these agents were tested using the same protocols used to test AFC.

mouse ear [2] = assay: Induction of mouse ear edema by TPA (dose response for irritant); type: in vivo; settings: of the acetone-treated ear; TPA 0.25 to 1.75 μg/20 μl in acetone, topical, 5.5 hours
Description: A dose response range for TPA, a compound known to induce edema, was determined. TPA produces an increase in edema (ear swelling) that reaches a maximum at 6 hours.
Increasing concentrations of TPA dissolved in acetone were applied with the aid of a micropipetter onto the right ear of each of the five 6-8 week old, male Swiss Webster mice used in this analysis. Ten microliters (10 μl) were spread evenly onto the inner and outer surfaces using the pipette tip. The mice then were returned to their cages. The contralateral ear was treated only with acetone. After 5.5 hours, the mice were sacrificed and 6 mm punches were taken from each ear and weighed. Edema response was expressed as a percent increase in the treated ear's weight over the untreated ear. The dose response curve, as well as an ED50 value, was determined using the Lichtfield method (Lichtfield J T W. F., A simplified method of evaluating dose-effect experiments, Journal of Pharmacology and Experimental Therapeutics, 1948, 96: 99-113).

mouse ear [3] = assay: AFC in acetone alone, mouse ear edema (irritancy test); type: in vivo; settings: topical, dose up to about 32 mg/20 μl, 5.5 hours
Description: Each contralateral ear was treated with only acetone in the same manner. The mice then were returned to their cages. After 5.5 hours, mice were sacrificed and 6 mm punches were taken from each ear and weighed. Edema response was expressed as the percent increase in the treated ear's weight over the untreated (acetone, vehicle only) ear.

TPA-induced edema = assay: TPA-induced edema, murine ear acute contact irritation model; type: in vivo, mouse; settings: 2 μg TPA in 20 μl acetone; AFC in acetone 15 min later; 5.5 hours
Excerpt: (See Carlson, R. P., et al., Modulation of mouse ear edema by cyclooxygenase and lipoxygenase inhibitors and other pharmacologic agents. Agents Actions, 1985. 17(2): 197-204; Kuehl, F. A., Jr., et al., Role of prostaglandin endoperoxide PGG2 in inflammatory processes. Nature, 1977. 265(5590): 170-3; Trancik R J, L. N., Evaluation of topical nonsteroidal anti-inflammatory agents, in Models in Dermatology, L. Maibach, Editor. 1985, Karger. pp, 35-42; and Tramposch, K. M., Skin Inflammation, in In Vivo Models of Inflammation, M. L. Morgan D W, Editor. 1999, Birkhauser Verlag. pp. 179-204.)
The standard agents for initiating inflammation were the phorbol ester, tetradecanoylphorbol acetate, (TPA) and arachidonic acid (AA). TPA produces a greater and more prolonged neutrophil infiltration response than AA (See Rao, T. S., et al., Comparative evaluation of arachidonic acid (AA)-and tetradecanoylphorbol acetate (TPA)-induced dermal inflammation. Inflammation, 1993.17(6): 72341.) TPA-induced inflammation is the preferred agent and was used for this example.
In order to assess the effects of the inventive composition on TPA-induced edema, 2 μg of TPA in 20 μl acetone was applied with the aid of a micropipetter onto both ears of each of 6 mice. The mice were returned to their cages. […]

TPA-induced MPO activity [4] = assay: TPA-induced neutrophil infiltration, MPO assay of mouse ears; type: in vivo
Description: MPO enzyme activity of the ears was assayed using the technique detailed by Griffiths and coworkers (1988). To conduct the assay, each ear was homogenized in 1.0 ml of cetyltrimethylammonium bromide buffer for 5 sec using a Pro 200 tissue blender (Pro Scientific, Inc., Oxford, Conn.) at setting 5. These samples then were centrifuged for 5 minutes at 15,000 rpm in a 5415 Eppendorf microcentrifuge. Triplicate 20 microliter aliquots of supernatant were added to 200 microliters of reaction mixture (1.25 ml IM Potassium Phosphate, 4.175 mg o-dianisidine dihydrochloride and 5 μl of 1% peroxide in a final volume of 25 ml). Absorbance at 450 nm then was measured at room temperature at three 60 second intervals using Bio-Kinetics Reader EL 312E (Bio-Tek Instruments). Activity of the homogenate, which was determined by a Bradford assay (BioRad Protein Assay, BioRad Laboratories, Inc. Hercules, Calif.), was expressed as units MPO per mg tissue +/−standard error.
Two micrograms (2 μg) of TPA in 20 μl of acetone was applied onto both ears of each mouse to induce neutrophil infiltration. After 15 minutes, varying concentrations of AFC in acetone were applied to the right ear of each mouse. After 24 hours, the mice were sacrificed. The ears were removed and the efficacy of AFC on neutrophil infiltration was assessed by an MPO assay and histological analysis.
The effectiveness of AFC treatment at various times before and after TPA application was assessed using MPO as a measure of neutrophil infiltration. […]

[5] = tested on: TPA-induced neutrophil infiltration; assay: TPA-induced neutrophil infiltration, neutrophil counting assay (H&E histology); type: in vivo, mouse
Description: Neutrophil-infiltration Assay: Swiss Webster male mice (n=6) were treated with 1 μg/20 μl of TPA as described above in order to assess whether or not TPA induced neutrophil infiltration Acetone was used as a control. TPA was administered as described above. The mice were returned to their cages for 24 hrs to allow neutrophil infiltration, then sacrificed by cervical dislocation. The ears were removed immediately for punch biopsy, and punches were fixed for subsequent histological analysis and MPO enzymatic assay.
Neutrophil Counting Assay: Ear punches buffered in 10% formalin in PBS at ambient temperature for a minimum of 24 hrs. were sectioned and stained with Hematoxilin & Eosin (“H&E”). The number of neutrophils, identified by their multilobular nuclei, in 6 randomly 100× magnified fields distributed along the length of the ear were counted manually The results are expressed as the average number per field for each ear.
Two micrograms (2 μg) of TPA in 20 μl of acetone was applied onto both ears of each mouse to induce neutrophil infiltration. […] After 24 hours, the mice were sacrificed.

TPA-induced erythema = TPA-induced erythema in mouse ear (photograph); type: in vivo; settings: 1 μg/20 μl TPA; 1 mg/20 μl AFC after 1 hour; photo 23 hours later
Description: For this example, both ears of a mouse were treated with a 1 μg/20 μl dose of TPA in acetone. […] The photo was taken 23 hours later using a Nikon D70 digital camera.

human skin = assay: SDS patch irritation on human skin with pre-applied AFC; type: in vivo; settings: AFC 140 mM aqueous formulation pre-applied
Description: An irritant was applied to the middle of the upper back of a human subject using a 0.2 ml 20% SDS solution and a Hill-Top Chamber patch with Webril pad. […] Patches 1a and 2a were removed after 2 hours, while patches 1b and 2b were removed after 2 hours and 30 minutes. High levels of irritation were visible in patch sites 2a and 2b.

chronic irritation = assay: Chronic irritation in mice by multiple TPA applications; type: in vivo, mouse; settings: AFC in acetone, contemplated result
Description: The effectiveness of the inventive compositions against established chronic irritation can be assayed using a modification of the technique of Stanley P L et al., Mouse skin inflammation induced by multiple topical application 12-O-tetradeconoyphorbol-13-acetate. Skin Pharmacol. 1991, 4(4):262-71. Both ears of each mouse are treated with TPA in acetone, as above, in a series of 5 applications on the mornings of days 0, 2, 4, 7, and 9. […] Punches of the ears then are taken the afternoon of the tenth day and prepared, as above, for the edema assay and the infiltration of neutrophils. Total granulocyte infiltration then is assayed by measuring MPO activity. Macrophage infiltration is determined immunocytologically using the MOMA-2 antibody. Hydrocortisone, which is known to reduce inflammatory edema granulation infiltration and microphage infiltration, can be used as a positive control.

[6] = tested on: delayed-type hypersensitivity; assay: DNFB delayed-type hypersensitivity mouse ear model; type: in vivo; settings: AFC 0.5 hour before or 15 min after challenge, contemplated result
Excerpt: The mouse ear model, described above, can be modified to assay the effect of anti-inflammatory agents in an immune based inflammation model (See Tramposch, K. M., Skin Inflammation, in In Vivo Models of Inflammation, M. L. Morgan D W, Editor. 1999, Birkhauser Verlag. pp. 179-20 and Chapman, J. P., Z. Ruben, and G. M. Butchko, Histology of and quantitative assays for oxazolone-induced allergic contact dermatitis in mice. Am J Dermatopathol, 1986. 8(2): 130-8). In this model, a sensitizing dose of dinitrofluorobenzene (DNFB) 1-3% in acetone can be applied topically according to a modification of the method by Back et al. to the shaved bellies of mice to elicit an immune response. (See Back, O. and T. Egelrud, Topical glucocorticoids and suppression of contact sensitivity. A mouse bioassay of anti-inflammatory effects. Br J Dermatol, 1985. 112(5): 539-45 and Bailey, S. C., et al., A novel contact hypersensitivity model for rank-ordering formulated corticosteroids. Inflamm Res, 1995. 44 Suppl 2: S162-3.) Mice then are challenged on day 5 with 40 μl of 0.5-1% DNFB to each ear. […] The ears are assayed for edema or neutrophil infiltration 5 hours later. Dexamethasone is used as a positive control. Five days later, the ears are challenged topically with a dose of DNFB insufficient to produce contact irritation. Simultaneously, cell infiltration studies are initiated. […]

[7] = molecular target: membrane-associated polyisoprenoid methyl transferase (Homo sapiens, UniProt O60725); settings: background statement; cited from earlier work
Sequence of membrane-associated polyisoprenoid methyl transferase (O60725 whole entry): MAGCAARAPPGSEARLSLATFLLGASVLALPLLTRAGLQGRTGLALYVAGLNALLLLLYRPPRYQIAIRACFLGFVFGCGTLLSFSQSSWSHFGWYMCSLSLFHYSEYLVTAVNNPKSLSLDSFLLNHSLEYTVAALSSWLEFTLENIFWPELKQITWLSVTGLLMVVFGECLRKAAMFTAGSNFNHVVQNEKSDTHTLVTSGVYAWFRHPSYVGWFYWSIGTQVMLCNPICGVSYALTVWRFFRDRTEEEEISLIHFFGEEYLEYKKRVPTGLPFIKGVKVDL

[8] = tested on: neutrophil, macrophage, and platelet responses; settings: in vitro, background statement; cited from earlier work
[9] = 2 μg TPA in 20 μl acetone, AFC 15 min later, 24 hours

## C[C@@H]1C[C@H]2[C@@H]3CCC4=CC(=O)C=C[C@]4(C)[C@@]3(F)[C@@H](O)C[C@]2(C)[C@@]1(O)C(=O)CO [dexamethasone]
TPA-induced MPO activity [1]
  MPO activity in the contralateral vehicle-treated ear (systemic effect): increasing inhibition of MPO activity

## tetradecanoylphorbol acetate [TPA]
Mouse ear [2]
  maximum increase in ear weight (edema): approximately 150%

## COc1ccc2c(c1)c(CC(=O)O)c(C)n2C(=O)c1ccc(Cl)cc1 [indomethasone]
TPA-induced MPO activity [1]
  MPO activity in the contralateral vehicle-treated ear (systemic effect): increasing inhibition of MPO activity

## CC(=O)N[C@@H](CSCC=C(C)CCC=C(C)CCC=C(C)C)C(=O)O (stereo in doubt) [AFC, N-acetyl-5-trans, trans-farnesyl-L-cysteine]
Mouse ear [3]
  edema response (ear punch biopsy weight) to AFC alone: no effect
TPA-induced edema
  ED50 for TPA-induced edema inhibition: approximately 0.44 mg/20 μl
  maximum reduction in TPA-induced edema: 80%
TPA-induced MPO activity [4]; 1 μg/20 μl TPA, 1 mg/20 μl AFC at various times before and after TPA
  effect on TPA-induced MPO activity at different application times: efficacy of AFC treatment prior to, simultaneous with, or after exposure of skin to TPA
TPA-induced MPO activity [4]; [9]
  ED50 for inhibition of TPA-induced MPO activity: 0.065 mg/20 μl
  inhibition of TPA-induced increases in MPO activity: > 80%
[5]; 1.0 mg/20 μl AFC, TPA acute contact irritation, statistically significant, paired t-test
  reduction in dermal neutrophils (counts): 80%
[5]; TPA pretreated ears, 24 hours, FIG. 5
  neutrophils in histology of AFC treated ear: substantial reduction of neutrophils
TPA-induced erythema
  TPA-induced erythema: An effect of the AFC inventive composition on TPA-induced erythema was observed
Human skin; 20% SDS patch removed after 2 hours and 30 minutes
  skin irritation at patch site 1b: mild response
Human skin; 20% SDS patch removed after 2 hours
  skin irritation at patch site 1a: normal skin
Chronic irritation
  chronic edema and neutrophil number: reduces chronic edema and neutrophil number
[6]
  edema and neutrophil infiltration in DNFB challenge: effective in reducing both edema and neutrophil infiltration
[7]
  inhibition of polyisoprenoid methyl transferase: inhibit membrane-associated polyisoprenoid methyl transferase
[8]
  neutrophil, macrophage and platelet responses: block some neutrophil, macrophage, and platelet responses in vitro
